The subject of series [1] is T. brucei brucei AnTat 1.9. The series can be described thus: In vitro antitrypanosomal activity, Alamar Blue assay. It is filed as cell-based. The following applies: for Selectivity index HepG2/Tryp.: SI = CC50 HepG2 / IC50 Trypanosoma brucei brucei; for IC50: Trypanosoma brucei, slender bloodstream trypomastigotes, AnTat 1.9 strain, read-out: Trypanosoma brucei brucei IC50 values, Trypanos Antat 1.9. How it is done:
The effects of the tested compounds on the growth of T. brucei brucei were assessed using an Alamar Blue® assay described by Räz et al.[49] T. brucei brucei AnTat 1.9 (IMTA, Antwerpen, Belgium) was cultured in MEM with Earle’s salts, supplemented according to the protocol of Baltz et al.[50] with the following modifications: 0.5 mM mercaptoethanol (Sigma Aldrich), 1.5 mM L-cysteine (Sigma Aldrich), 0.05 mM bathocuproine sulphate (Sigma Aldrich), and 20% heat-inactivated horse serum (Gibco, France) at 37 °C and 5% CO2. Samples were incubated at an average density of 2000 parasites/well in sterile 96-wells plates (Fisher, France) with various concentrations of compounds dissolved in 0.9% NaCl. All doses were tested in duplicate. Appropriate controls treated with solvents 0.9% NaCl or DMSO or with suramin, pentamidine, eflornithine, and fexinidazole (reference drugs purchased from Sigma Aldrich and Fluorochem, UK) were added to each set of experiments. After 69 h incubation period at 37 °C, 10 µl of the viability marker Alamar Blue (Fisher) was added to each well, and the plates were incubated for 5 h. The plates were read in a PerkinElmer ENSPIRE (Germany) microplate reader using an excitation wavelength of 530 nm and an emission wavelength of 590 nm. […] IC50 values were calculated using a nonlinear regression analysis of dose-response curves performed using GraphPad Prism software (La Jolla, CA). IC50 values were calculated from three independent experiments.
On the technique in general: Alamar Blue is a resazurin reagent that responds to reducing activity.

The subject of series [2] is L. donovani (MHOM/IN/00/DEVI) promastigotes. As to the kind of experiment: In vitro antileishmanial activity, MTT assay on promastigotes. It is filed as cell-based. The following applies: Leishmania donovani, 72 h incubation, ≥10 = no activity noted at the highest concentration tested. How it is done: L. donovani (MHOM/IN/00/DEVI) used in this study was provided by the CNR Leishmania (Montpellier, France). The effects of the tested compounds on the growth of L. donovani (MHOM/IN/00/DEVI) promastigotes were assessed by MTT assay. Briefly, promastigotes in log-phase in Schneider’s medium supplemented with 20% foetal calf serum (FCS), 2 mM L-glutamine and antibiotics (100 U/ml penicillin and 100 µg/ml streptomycin), were incubated at an average density of 10^6 parasites/ml in sterile 96-well plates with various concentrations of compounds dissolved in DMSO (final concentration less than 0.5% v/v), in duplicate. Appropriate controls treated with DMSO and amphotericin B (reference drug purchased from Sigma-Aldrich) were added to each set of experiments. After 72 h incubation period at 27 °C, parasite metabolic activity was determined. Each well was microscopically examined for precipitate formation. To each well was added 20 µl of 5 mg/ml MTT [3–(4,5-dimethylthiazol-2-yl)-2,5-diphenyltetrazolium bromide)] solution followed by 4 h incubation time. The enzyme reaction was stopped by addition of 100 µl of 50% isopropanol/10% sodium dodecyl sulfate. Plates were vigorously shaken (300 rpm) for 10 min, and the absorbance was measured at 570 nm in a BIO-TEK ELx808 Absorbance Microplate Reader. […] IC50 of the parasite’s growth (half maximal inhibitory concentration or IC50 values) were then calculated from the obtained experimental results using a previously described regression programme.
On the technique in general: Tetrazolium dyes change colour on reduction, which living cells bring about.

Series [3] deals with P. falciparum CQ-resistant strain W2. The series can be described thus: In vitro antiplasmodial activity, SYBR Green I fluorescence-based method, strain W2. It is filed as cell-based. Conditions: for IC50: Plasmodium falciparum, chloroquine-resistant strain W2, 48 h incubation, read-out: P. falciparum strains IC50 values, W2; for Selectivity index HepG2/W2: SI = CC50 HepG2 / IC50 P. falciparum W2. The protocol:
(§1) The in vitro antiplasmodial activities were tested over concentrations ranging from […] against culture-adapted P. falciparum reference strains 3D7 and W2. […] The parasites were cultivated in RPMI medium (Sigma-Aldrich, Lyon, France) supplemented with 0.5% Albumax I (Life Technologies Corporation, Paisley, UK), hypoxanthine (Sigma-Aldrich), and gentamicin (Sigma-Aldrich) with human erythrocytes and were incubated at 37 °C in a candle jar, as described previously[43] .The P. falciparum drug susceptibility test was carried out in 96-well flat-bottom sterile plates in a final volume of 250 µl. After 48 h incubation period with the drugs, quantities of DNA in treated and control cultures of parasites in human erythrocytes were quantified using the SYBR Green I (Sigma-Aldrich) fluorescence-based method[44]^,[45]. Briefly, after incubation, plates were frozen at −20 °C until use. Plates were then thawed for 2 h at room temperature, and 100 µl of each homogenised culture was transferred to a well of a 96-well flat-bottom sterile black plate (Nunc, Inc., Rochester, NY) that contained 100 µl of the SYBR Green I lysis buffer (2xSYBR Green, 20 mM Tris base pH 7.5, 5 mM EDTA, 0.008% w/v saponin, 0.08% w/v Triton X-100). […] Plates were incubated for 1 h at room temperature and then read on a fluorescence plate reader (Tecan, Grödig, Austria) using excitation and emission wavelengths of 485 and 535 nm, respectively. IC50 values were calculated by non-linear regression analysis of data from dose-response curves, using TableCurve 2D version 5.0 software (Systat Software, San Jose, CA). IC50 values are reported as means calculated from three independent experiments.

Series [4] in a line: Cytotoxicity evaluation, MTT. The class given is cell-based, human. Conditions: human. How it is done:
These cells are a commonly used human hepatocarcinoma-derived cell line that has characteristics similar to those of primary hepatocytes. These cells express many hepatocyte-specific metabolic enzymes, thus enabling the cytotoxicity of tested product metabolites to be evaluated. […] Duplicate assays were performed for each sample. Each well was microscopically examined for precipitate formation before the medium was aspirated from the wells. After aspiration, 100 µl of MTT solution (0.5 mg/ml in medium without FCS) were then added to each well. […] The MTT solution was removed, and DMSO (100 µl) was added to dissolve the resulting blue formazan crystals. Plates were shaken vigorously (300 rpm) for 5 min. The absorbance was measured at 570 nm with 630 nm as reference wavelength in a BIO-TEK ELx808 Absorbance Microplate Reader. DMSO was used as blank and doxorubicin (Sigma Aldrich) as positive control. Cell viability was calculated as percentage of control (cells incubated without compound). The CC50 was determined from the dose-response curve using the TableCurve 2D version 5.0 software (Systat Software, San Jose, CA)

Series [5] concerns P. falciparum CQ-sensitive strain 3D7. The series can be described thus: In vitro antiplasmodial activity, SYBR Green I fluorescence-based method, strain 3D7. The class given is cell-based. Conditions: for IC50: Plasmodium falciparum, chloroquine-sensitive strain 3D7, 48 h incubation, read-out: P. falciparum strains IC50 values, 3D7; for Selectivity index HepG2/3D7: SI = CC50 HepG2 / IC50 P. falciparum 3D7. The protocol:
as §1

Each structure is given as a SMILES string. Bounds are passed on as bounds.

As for `COc1ccc2c(-c3ccc(CNCCCN4CCN(C)CC4)cc3)nc(-c3ccc(CNCCCN4CCN(C)CC4)cc3)cc2c1` [Compound 2l], in series [1], the “Selectivity index HepG2/Tryp.” value was found to be 1.50 and the half-inhibitory concentration (IC50) is 1.34 ± 0.088 µM. The compound also showed an IC50 in series [2] not below 10 µM. Also, in series [3], the half-maximal inhibitory concentration (IC50) came to 9.6 ± 0.99 µM and the “Selectivity index HepG2/W2” value was determined as 0.21. For the same compound, in series [4], the CC50 at 72 h stood at 2.01 ± 0.2 µM. Also, in series [5], the IC50 is 9.66 ± 1.2 µM and the “Selectivity index HepG2/3D7” value is on record as 0.21.
For `CN1CCN(CCCCNCc2ccc(-c3cc4ccccc4c(-c4ccc(CNCCCCN5CCN(C)CC5)cc4)n3)cc2)CC1` [Compound 2c, 1,3-Bis{4-[(4–(4-methylpiperazin-1-yl)butyl)aminomethyl]phenyl}isoquinoline], in series [1], the “Selectivity index HepG2/Tryp.” value came to 4.53 and the half-inhibitory concentration (IC50) was determined as 1.1 ± 0.318 µM. Also, the half-maximal inhibitory concentration (IC50) in series [2] is not below 10 µM. Besides, in series [3], the IC50 was 4.42 ± 0.56 µM and the “Selectivity index HepG2/W2” value is given as 1.13. In series [4], this compound had a 50% cytotoxic concentration (CC50) at 72 h of 4.98 ± 0.5 µM. In series [5], the IC50 is 1.96 ± 0.58 µM and the “Selectivity index HepG2/3D7” value is listed as 2.54.
For the compound `COc1ccc2c(-c3ccc(CNCCCCN4CCN(C)CC4)cc3)nc(-c3ccc(CNCCCCN4CCN(C)CC4)cc3)nc2c1` [Compound 3p, 7-Methoxy-2,4-bis{4-[(4–(4-methylpiperazin-1-yl)butyl)aminomethyl]phenyl}quinazoline], in series [1], the “Selectivity index HepG2/Tryp.” value was 17.01 and the IC50 was determined as 1.02 ± 0.194 µM. In series [2], this compound yielded a half-inhibitory concentration (IC50) not below 10 µM. Further, in series [3], the IC50 was 5.08 ± 0.48 µM and the “Selectivity index HepG2/W2” value is 3.41. The CC50 at 72 h in series [4] stood at 17.4 ± 1.2 µM. In addition, in series [5], the IC50 is 6.56 ± 1.44 µM and the “Selectivity index HepG2/3D7” value was 2.64.
Take `COc1ccc2cc(-c3ccc(CNCCCCN4CCN(C)CC4)cc3)nc(-c3ccc(CNCCCCN4CCN(C)CC4)cc3)c2c1` [Compound 2g, 7-Methoxy-1,3-bis{4-[(4–(4-methylpiperazin-1-yl)butyl)aminomethyl]phenyl}isoquinoline]: in series [1], the “Selectivity index HepG2/Tryp.” value was found to be 10.16. For the same compound, the concentration for half-maximal inhibition (IC50) in series [1] is 1 ± 0.261 µM; in series [2] it was not below 10 µM; in series [3], 7.61 ± 0.94 µM; in series [5], 3.27 ± 0.31 µM. Further, in series [3], the “Selectivity index HepG2/W2” value is 1.33. This compound also yielded a CC50 at 72 h in series [4] of 10.2 ± 0.9 µM. Besides, the “Selectivity index HepG2/3D7” value in series [5] came out at 3.11.
On to `COc1ccc2c(-c3ccc(CNCCCN4CCN(C)CC4)cc3)nc(-c3ccc(CNCCCN4CCN(C)CC4)cc3)nc2c1` [Compound 3q, 7-Methoxy-2,4-bis{4-[(3–(4-methylpiperazin-1-yl)propyl)aminomethyl]phenyl}quinazoline], for which, in series [1], the “Selectivity index HepG2/Tryp.” value was 0.74 and the 50% inhibitory concentration (IC50) worked out at 1.71 ± 0.145 µM. In series [2], this compound gave a half-maximal inhibitory concentration (IC50) not below 10 µM. In series [3], the IC50 turned out to be 11.5 ± 1.05 µM and the “Selectivity index HepG2/W2” value turned out to be 0.11. The compound further showed a CC50 at 72 h in series [4] of 1.27 ± 0.5 µM. In series [5], the IC50 turned out to be 10.4 ± 0.58 µM and the “Selectivity index HepG2/3D7” value is reported as 0.12.
Turning to `COc1ccc2nc(-c3ccc(CNCCCN4CCN(C)CC4)cc3)nc(-c3ccc(CNCCCN4CCN(C)CC4)cc3)c2c1` [Compound 3k, 6-Methoxy-2,4-bis{4-[(3–(4-methylpiperazin-1-yl)propyl)aminomethyl]phenyl}quinazoline], in series [1], the “Selectivity index HepG2/Tryp.” value came out at 24.06 and the half-maximal inhibitory concentration (IC50) worked out at 0.94 ± 0.089 µM. In addition, in series [2], the half-maximal inhibitory concentration (IC50) is not below 10 µM. In series [3], the IC50 stood at 4.84 ± 0.58 µM and the “Selectivity index HepG2/W2” value worked out at 4.67. Further, the CC50 at 72 h in series [4] is 22.6 ± 1.1 µM. Further, in series [5], the IC50 was 3.12 ± 0.23 µM and the “Selectivity index HepG2/3D7” value was 7.25.
For `COc1ccc2nc(-c3ccc(CNCCCCN4CCN(C)CC4)cc3)cc(-c3ccc(CNCCCCN4CCN(C)CC4)cc3)c2c1` [Compound 1k, 6-Methoxy-2,4-bis{4-[(4–(4-methylpiperazin-1-yl)butyl)aminomethyl]phenyl}quinoline], in series [1], the “Selectivity index HepG2/Tryp.” value stood at 6.28 and the IC50 turned out to be 0.98 ± 0.118 µM. The IC50 in series [2] is not below 10 µM. Moreover, in series [3], the IC50 was 4.1 ± 0.54 µM and the “Selectivity index HepG2/W2” value was found to be 1.50. In series [4], this compound displayed a CC50 at 72 h of 6.16 ± 0.4 µM. Further, in series [5], the IC50 came to 2.59 ± 0.2 µM and the “Selectivity index HepG2/3D7” value came to 2.38.
Regarding `COc1ccc2nc(-c3ccc(CNCCN4CCN(C)CC4)cc3)nc(-c3ccc(CNCCN4CCN(C)CC4)cc3)c2c1` [Compound 3l, 6-Methoxy-2,4-bis{4-[(2–(4-methylpiperazin-1-yl)ethyl)aminomethyl]phenyl}quinazoline], the “Selectivity index HepG2/Tryp.” value in series [1] came to 11.06. The IC50 in series [1] was 0.59 ± 0.057 µM; in series [2], not below 10 µM; in series [3] it was 1.34 ± 0.29 µM; in series [5] it was 1.81 ± 0.25 µM. Also, the “Selectivity index HepG2/W2” value in series [3] was determined as 4.87. In series [4], this compound returned a cytotoxic concentration (CC50) at 72 h of 6.53 ± 0.6 µM. The “Selectivity index HepG2/3D7” value in series [5] amounted to 3.61.
For the compound `COc1ccc2c(-c3ccc(CNCCCCN4CCN(C)CC4)cc3)cc(-c3ccc(CNCCCCN4CCN(C)CC4)cc3)nc2c1` [Compound 1o, 7-Methoxy-2,4-bis{4-[(4–(4-methylpiperazin-1-yl)butyl)aminomethyl]phenyl}quinoline], in series [1], the “Selectivity index HepG2/Tryp.” value stood at 2.96 and the IC50 worked out at 1.12 ± 0.118 µM. Moreover, the IC50 in series [2] was not below 10 µM. Moreover, in series [3], the 50% inhibitory concentration (IC50) is 2.26 ± 0.48 µM and the “Selectivity index HepG2/W2” value came out at 1.47. Besides, the CC50 at 72 h in series [4] is 3.32 ± 0.5 µM. Besides, in series [5], the IC50 was found to be 2.41 ± 0.08 µM and the “Selectivity index HepG2/3D7” value is 1.38.

Broadly, the IC50 is the point on the concentration scale where inhibition reaches its midpoint. For orientation: CC50 means the concentration that lowers cell viability or growth by half. Lower therefore signals harm at low concentration.

These data come from publication PMC6968685 (Journal of Enzyme Inhibition and Medicinal Chemistry, 2020).
